Broadly, the melting point is the temperature of the solid-liquid transition.

Melting point data for 89 compounds are collected here from a melting point compilation (Tetko et al.; mined from patent text by program, amines drawn as free bases though some values may be those of a salt).

With `COc1cc(COC(C)=O)c(COC(C)=O)cc1OCCCl`, the melting point is 79 to 80 °C.
The figure for `CCNC(=O)NC[C@H](O)c1cccc(O)c1` is 102 to 105 °C; for `CCC(=O)OCC1OC(n2cnc3c(=O)[nH]c(N)nc32)C(F)C1OC(=O)CC` (centres undefined) it is 198 to 200 °C; for `COc1ccc2c(C(=O)CC(C)=O)c(OC)ccc2c1` it is 88 °C.
`Fc1ccc([C@@H]2Cc3cnc(Nc4ccc(CCN5CCCCC5)cc4)nc3-c3ccccc32)cc1` came in with a melting point of 185 to 188 °C.
As to `Cc1nc(N2CCN(CCc3ccccc3)C2=O)sc1C(=O)NCc1ccccc1`, the melting point was in the range of 156 to 157 °C.
For `O=C(O)COC1c2ccccc2COc2ccc(OCc3ccc4cc(Cl)ccc4n3)cc21` (centres undefined) the value was 179 to 180 °C.
For `C#Cc1cc(O)cc2nc(-c3ccc(O)cc3)oc12` the value was 229 to 231 °C.
For `Cc1cc(-c2ccccc2)nc2nc(N)ccc12`, the melting point fell in the range of 253 to 255 °C.
For `CN1CCN(C)c2cccc(Nc3ncc(Cl)c(N[C@@H]4CCCC[C@H]4NS(C)(=O)=O)n3)c2C1=O` the value was 160 °C; for `Cn1c(C(=O)NCCCn2ccnc2)cc2ccccc21`, 125 to 129 °C.
As to `O=c1c2c(n(-c3cccc(Cl)c3)c3ncccc13)CCCC2`, the melting point was 195 to 198 °C.
The compound `CCOC(=O)c1cc2c(C)c(OCc3ccccc3)ccc2n1C` yielded a melting point of 100 to 101 °C.
For `CCCCNCCCCCCCCSc1nc(-c2ccccc2)c(-c2ccccc2)[nH]1` the value was 75 to 78 °C; for `CC1CN(c2ccccc2)N=C1NC(=O)C(F)(F)F` (centres undefined), 142 to 144 °C.
The figure for `COC(=O)c1ccc2ccc(S(=O)(=O)N(Cc3ccccc3)Cc3ccccc3)cc2c1` is 141 to 142 °C.
Take `CCOC(=O)c1cc2cc(SC(=O)N(C)C)ccc2oc1=O`: the melting point was 133 to 134 °C.
The figure for `Cn1nc(C(F)(F)F)cc1-c1ccc(CN2CCN(c3ccc(OCC4CCn5cc([N+](=O)[O-])nc5O4)cc3)CC2)s1` (centres undefined) is 180 to 181 °C.
For `CS(=O)(=O)Nc1cccc(OCc2c[nH]cn2)c1` the value was 178 to 180 °C; for `CCOc1nc(NCCCCC2CC(C)(C)NC(C)(C)C2)nc(NCCCCC2CC(C)(C)NC(C)(C)C2)n1`, 95 to 104 °C.
The figure for `CCOC(=O)N1CCc2[nH]c(=O)n3nc(-c4ccccc4F)nc3c2C1` is 307 to 311 °C.
For the compound `O=[N+]([O-])c1ccc2nc(N3CCNCC3)cc(Cl)c2c1`, the melting point lay in the range of 175 to 177 °C.
Take `Cc1ccc(NC(=O)N(Cc2ccccc2)Cc2ccccc2)c(C)c1`: the melting point was in the range of 124 to 126 °C.
For `Cc1cc2cc(CN3CCCC3)cnc2cc1NC(=O)c1ccc(-c2ccccc2F)cc1`, the melting point is 148 to 149 °C.
For `CCC([O-])=C(C(=O)OCc1ccccc1)N1C(=O)CC1[N+](CC)(CC)CC` (centres undefined) the value was 107 °C; for `COc1ccc(-c2ccc3nnn(Cc4ccc5ncccc5c4)c3n2)cc1F`, 187 to 190 °C.
On to `CCOC(=O)C(Cc1ccccc1)CP(=O)(OCC)OCC` (centres undefined), for which the melting point is 58 to 72 °C.
Regarding `O=C(O)c1cn(-c2ccc(F)cc2)c(-c2ccc(Cl)cc2)cc1=O`, the melting point was in the range of 199 to 204 °C.
The compound `COc1c(C)c(N2CCN(c3ccc(C(F)(F)F)cc3)CC2)c(C)c2c1OC(C)(C)C2` displayed a melting point of 186 to 187 °C.
The figure for `Cc1cc(=O)[nH]nc1-c1ccc(-c2ccc(F)cc2)cc1` is 245 to 247 °C; for `COc1cc(-c2ccccc2)c([N+](=O)[O-])cc1OC` it is 113 to 115 °C.
With `CS(=O)(=O)c1ccc(-c2oc3ccccc3c(=O)c2-c2ccc(Br)cc2)cc1`, the melting point was 168 to 170 °C.
The compound `CCc1nc2c(NC(=O)C(C)C)nc3ccccc3c2n1CCCCNS(C)(=O)=O` displayed a melting point of 122 to 124 °C.
The figure for `COc1ccc(C(=C/C=C/C(=O)Oc2ccc([N+](=O)[O-])cc2)c2ccc(OC)cc2)cc1` is 121 to 123 °C.
`N=C(NS(=O)(=O)C=Cc1ccc([N+](=O)[O-])cc1)c1ccccc1`: the melting point lay in the range of 173 to 175 °C.
For `COc1ccc(-c2cnc(NC(=S)Cc3ccccc3)c(Cc3ccccc3)n2)cc1` the value was 45 to 47 °C.
The figure for `Cc1oc(-c2ccc(S(C)(=O)=O)cc2)c(Oc2ccc(F)cc2)c(=O)c1Cl` is 279 °C; for `FC(F)(F)Oc1ccc(Nc2nc(Cl)nc(Cl)n2)cc1` it is 119 to 122 °C; for `O=c1[nH]cnc2cc(Br)sc12` it is 238 to 240 °C.
The figure for `CCC(C(O)C(C)C(O)C(C)CCc1ccc(C)c(O)c1C(=O)O)C1OC(CC)(C2CCC(O)(CC)C(C)O2)CC1C` (centres undefined) is 151 to 153 °C; for `CC1(O)CC(=O)OC(CCc2ccc(Cl)cc2)C1Br` (centres undefined) it is 116 to 119 °C.
Compound `CCCc1cc(CCC)n2nc(N3CCN(C(=O)OCC)CC3)nc2n1` registered a melting point of 130 to 132 °C.
For `CCN(c1nc(C)cc(N2CCSCC2)n1)c1ccc(C(C)C)cc1I`, the melting point lay in the range of 51 to 53 °C.
The compound `CC(CS)C(=O)N1C(C(=O)O)CC2CCCCC21` (centres undefined) came in with a melting point of 141 to 142 °C.
The figure for `CCCc1nc2c(N)nc3ccccc3c2n1CCCC1(C)OCCO1` is 184 to 186 °C; for `CCOC(=O)c1cn(Cc2cccnc2)nc1O` it is 148 to 149 °C.
The figure for `CCOC(=O)C1=C(COCCNc2nccs2)NC(C)=C(C(=O)OC)C1c1ccccc1Cl` (centres undefined) is 134 °C; for `O=C(c1n[nH]c2c(=O)[nH]c3cc(Cl)ccc3c(=O)c12)N(O)Cc1ccccc1` it is 282 to 285 °C.
The figure for `O=C(O)c1c2ccccc2nc2ccc3ccccc3c12` is 169 to 170 °C; for `C#Cc1ccccc1-c1ccc(I)cc1` it is 114 °C.
Turning to `CCOC(=O)N1CCN(c2nc3c(cc2F)c(=O)c(C(=O)O)cn3C2CC2)CC1`, the melting point fell in the range of 277 to 279 °C.
On to `CC(=O)Nc1nc(CN2CCN(C(c3ccccc3)c3ccc(Cl)cc3)CC2)cs1` (centres undefined), for which the melting point lay in the range of 140 to 145 °C.
Take `CCOP(=O)(OCC)SCc1ccc(-c2nc(SC)c3cc(Br)ccc3n2)cc1`: the melting point was in the range of 126 to 127 °C.
The figure for `CCCCCCCCCCCCNC(=O)COc1ccc(O)cc1NCC(=O)O` is 122 to 125 °C.
For `CCOC(=O)NN=Cc1ccnc2ccccc12` the value was 161 °C; for `Cc1noc(NS(=O)(=O)c2ccccc2-c2ccc(-c3ncco3)cc2CN(C)C(=O)Cc2ccccc2)c1C`, 114 to 122 °C.
For `COc1ccc(NC(=O)NCCCl)cc1OC` the value was 117 °C; for `COc1ccc(NC(=O)c2ccc(-c3ccc(-c4nc(N)no4)cc3C)cc2)cc1N1CCN(C)CC1`, 169 to 171 °C; for `CCC(NC(=O)c1c(NC(C)=O)c(NC(C)=O)cc2c1OCCO2)N1CCCCC1` (centres undefined), above 260 °C.
The compound `N#CC1c2ccccc2CCc2ccccc21` gave a melting point of 89 to 90 °C.
For `O=C(Cc1ccccn1)c1ccc2ncccc2c1`, the melting point came out at 104 °C.
The figure for `O=C(O)c1cc(NCc2c(F)c(F)c(C(F)(F)F)c(F)c2F)ccc1Cl` is 58 °C; for `c1cc(CCCCCc2nnn[nH]2)n2cncc2c1` it is 149 to 150 °C; for `O=C1Cc2ccc(F)cc2C(c2ccc(Cl)cc2)N1` (centres undefined) it is 131 to 133 °C.
For `COc1ccc(C(=O)Nc2ccncc2)c2c3cc(Cl)ccc3n(Cc3ccc(F)cc3)c12` the value was 241 to 245 °C; for `Cc1[nH]n(Cc2ccc(C(=O)O)cc2)c2nc(-c3ccncc3)nc(=O)c1-2`, above 300 °C.
The figure for `C[C@H](Cc1cc2c(c(C(N)=O)c1)N(CCCCO)CC2)NCCOc1ccccc1OCC(F)(F)F` is 116 to 118 °C; for `Brc1ccc(-c2ccc(C=CC3COC4(CCCCC4)OO3)cc2)cc1` (centres undefined) it is 118 to 120 °C.
With `Cc1cc(-c2cc(C(F)(F)F)n3cnc(-c4cccnc4)c3n2)ccc1Cl`, the melting point is 210 °C.
The compound `Oc1ccc(C2=CCCCCCC2)cc1` yielded a melting point of 95 to 97 °C.
The figure for `CCc1nnc(-c2ccccc2)c(=O)n1N` is 164 °C; for `OCC1OC(n2cnc3c(NC4CCC(O)C4)ncnc32)C(O)C1O` (centres undefined) it is 208 to 210 °C; for `CCCc1c(O)c(C(C)=O)cc(C(C)=O)c1NCC` it is 114 to 115 °C.
Regarding `CCOC(=O)C1=C(C)NC(C=NN)=C(C(=O)OCC)C1c1ccccc1Cl` (centres undefined), the melting point is 107 to 110 °C.
The figure for `CCCc1c(C(=O)NCc2ccc3c(Br)c(OCC(=O)OC)ccc3c2)cnn1-c1ccccc1` is 144 to 146 °C.
The figure for `Cc1nnc2n1-c1sc(CC(=O)O)cc1C(c1ccccc1Cl)=NC2C` (centres undefined) is 222 to 225 °C.
For `CC(=O)N1CCN(Cc2ccc(-c3cc4ncnc(Nc5ccc6[nH]ccc6c5)c4s3)cc2)CC1`, the melting point fell in the range of 163 to 180 °C.
For the compound `CC(C)=CCc1c(C)c(C)c(O)c(C)c1C`, the melting point was in the range of 105 to 106 °C.
Take `CCN(CC)c1ccc(C=C2CCCC(=Cc3ccc(N(CC)CC)cc3)C2=O)cc1`: the melting point worked out at 167 °C.
The figure for `COc1ccc(-c2nc3n(c2-c2ccc(OC)cc2)CCC3)cc1` is 146 to 148 °C; for `CC1=CC(c2cccc(Cl)c2)C2=C(CCCC2=O)N1` (centres undefined) it is 201 to 203 °C; for `COc1c(C(=O)C=Cc2ccncc2)cc(Cl)c(N)c1OC` it is 220 to 223 °C.
The figure for `CC(C)(C)c1ccc(C(=O)Nc2cn3cc(-c4cnco4)ccc3n2)cn1` is 251 to 253 °C.
The figure for `CC1(C)CC(=O)c2c(-c3ccccc3)cn(-c3ccccn3)c2C1` is 160 to 162 °C; for `CCC(=O)NC1C=CCCCC1` (centres undefined) it is 84 °C.
On to `COCCc1nc2c(N)nc3ccccc3c2n1CCCCNC(=O)c1ccc(-n2cccc2)nc1`, for which the melting point was 77 to 80 °C.
The figure for `COCc1ccn2c(C)c(CCc3ccc4nc(N)oc4c3)nc2c1` is 206 to 207 °C.
In turn, `CCN1C(OC)=NC(C)=NS1(=O)=O` showed a melting point of 50 to 53 °C.
In turn, `O=C(O)C1CSC(c2ccccc2O)N1` (centres undefined) had a melting point of 169 °C.
